“Also recorded” adds a separate entry of the source. Like-named read-outs stand apart in the source and are kept apart here.

The IC50 is the midpoint of a concentration-inhibition curve.

For one series, the target named is T1, CKIα (Homo sapiens, UniProt P48729).
T1 construct: purchased Invitrogen PV3850
Briefly: In vitro kinase assay (Kinase Glo), CKIα. In kind it is biochemical. Here is the method:
A stock solution of 7.4 mM in DMSO was prepared and thermally adapted by heating to c.a. 100 °C for 1 min. Two series of eight samples were prepared with consecutive three-time dilutions from the stock solution. One of the series (‘dark’ samples) was prepared in dark Eppendorf tube, the other series (‘light’ samples) was pre-irradiated with UV light (365 nm, UV lamp Spectroline, ENB-280/FE, 1 × 8 Watt) for 45 min. For compound 9, 1 mM solution in DMSO was thermally adapted by heating to 80 °C for 2 min and split into two vials. One vial was kept in the dark and the other was irradiated with green light (530 nm, 3x Nichia NCSG219B-V1, 3 × 550 mW, Sahlmann Photochemical Solutions) for 60 min. Both dark-kept and irradiated samples were subjected to 8-point 3-fold dilutions. All the solutions were applied to the well plate under a red lamp in the dark room in order to prevent ambient-light-induced photo-isomerization.
The assays were performed on a white, solid-bottom 384-well plates. The total volume for the reaction is 10.5 µl. Firstly, a solution of CKI and peptide was added to the bottom of the well (9 µL). Next, a corresponding solution of the compound (0.5 μL, final 5% DMSO) followed by 50 μM ATP solution (1 μL) were pipetted into the upper corners of each well. The enzymatic reaction was started by spinning down the plate (1800 x g, 2 min).
By employing this method, all reactions were started at the same time, minimizing variance between different samples. Incubation for 3 h at 30 °C or 2 h at 37 °C allowed for the enzymatic phosphorylation of the substrate peptide. As the reaction started, the wells with ‘light’ samples were irradiated with UV light or kept in dark in case of experiment with compound 9. ‘Dark’ (0 min pre-irradiation) wells were covered with an aluminum sticker from the beginning. After the incubation, 10 μL Kinase Glo® (Promega) was applied into the wells and the luminescent signal was recorded by a plate reader (BioTek Synergy H1 or Cytation).
The total volume for the reaction was 10.5 µl. The reaction mixture contained the following: for CKIδ, 4 ng/µl CKIδ (14-520, Eurofins), 50 µM peptide substrate RKKKAEpSVASLTSQCSYSS corresponding to human PER2 Lys659-Ser674, and CKI buffer (40 mM Tris, 10 mM MgCl2, 0.5 mM DTT, 0.1 mg/ml BSA, pH7.4); for CKIα, 1 ng/µl CKIα (PV3850, Invitrogen), 50 µM CKI peptide substrate (60547-1, Anaspec), and CKI buffer.
The data obtained from the in vitro kinase assay was analyzed using GraphPad software, in which the luminescence outcome is normalized. Normalization is done using a luminescent output of the control that contained high concentration of longdaysin (370 µM) as 100% inhibition and DMSO for 0% inhibition. In all graphs, a dose-response fit was used to obtain
Background: Kinase-Glo reads ATP consumption through a luciferase reaction.

Series [1] in a line: Chemical stability under dark and irradiation conditions followed by LCMS. Format: physicochemical. The note with it: 40 µM in kinase assay buffer or cell culture medium, dark, 365 nm 3 h, 400 nm 30 min. Here is the method: LCMS traces of stability studies
Supplementary Figure 8. Chemical stability of compound 3 under dark and irradiation conditions followed by LCMS. All the samples were prepared as 40 µM solution in buffer or cell culture medium. ‘Buffer’ and ‘medium’ samples were injected immediately upon dissolving compound 3, ‘buffer_3h_dark’ was injected after 3 h of keeping the solution in dark, ‘buffer_3h_365nm’ after irradiation of the sample for 3 h with UV light in kinase assay buffer, and ‘medium_30min_400nm’ after 30 min of irradiation with 400 nm in cell culture medium. The trans-isomer was followed at the retention time of 10.41-10.47 min and the cis-isomer at the retention time of 8.84-8.90 min. Mass spectra of both isomers in different […]
(1 picture or pasted object on this page, not shown here)

Setting [2] is: thermally adapted trans-isomer kept in the dark, read-out: CKIα IC50, dark.

T1 sequence (P48729 whole entry): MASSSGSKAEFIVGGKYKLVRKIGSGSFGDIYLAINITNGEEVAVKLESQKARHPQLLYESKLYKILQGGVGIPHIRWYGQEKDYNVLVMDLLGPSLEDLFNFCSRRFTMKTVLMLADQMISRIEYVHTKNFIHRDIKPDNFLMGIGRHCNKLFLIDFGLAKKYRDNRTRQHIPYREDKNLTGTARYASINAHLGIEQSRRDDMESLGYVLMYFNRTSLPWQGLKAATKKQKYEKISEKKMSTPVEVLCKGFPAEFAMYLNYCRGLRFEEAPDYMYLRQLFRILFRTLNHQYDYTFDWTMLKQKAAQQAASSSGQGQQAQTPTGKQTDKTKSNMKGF

In the case of `Cc1nn(C)c(C)c1/N=N/c1cccc(CNc2ncnc3c2ncn3C(C)C)c1` [Compound 8], the 50% inhibitory concentration (IC50) on CKIα (irradiated with UV light (365 nm) before and during the assay, cis-enriched, read-out: CKIα IC50, light) worked out at 24 µM; on CKIα (setting [2]), 3 µM. Also, on CKIα (trans vs cis-enriched (365 nm), 5 is stronger under light, the others weaker), the “fold difference in CKIα inhibition between dark and UV-irradiated sample” value was determined as 8 fold. The “chemical stability (reduction or oxidation of the azo group)” value in series [1] is on record as “Products of reduction or oxidation were not observed; also recorded: no observable reduction or oxidation”.
As for `CC(C)n1cnc2c(NCc3ccc(F)c(/N=N/c4c(F)cccc4F)c3F)ncnc21` [Compound 9], the “potency relative to longdaysin” value on CKIα (CKI activity) is “comparable to that of longdaysin”. Besides, the “fold difference in CKIα IC50 between trans-form and cis-isomer” value on CKIα (green light 530 nm vs dark) is on record as 1.5 fold. The IC50 at CKIα (pre-irradiated with green light (530 nm), 86% cis, read-out: CKIα IC50, 530 nm) is 8.2 µM; at CKIα (setting [2]), 5.3 µM. Moreover, in series [1], the “chemical stability (reduction or oxidation of the azo group)” value is listed as “Products of reduction or oxidation were not”.
